Data published in patent US8895585B2, “Nicotinamide derivative or salt thereof” (FUJIFILM Corporation, priority 2010, dated 2014).

Molecular target: T1, glutathione S-transferase (GST)-fused full-length human Syk protein (Homo sapiens, UniProt P43405)
T1 construct: (GST)-fused full-length human Syk protein; GST (glutathione S-transferase); purchased Carna Biosciences
Assay: Syk enzyme assay
Assay type: biochemical
Conditions: Syk enzyme assay, Test Example 1; read-out: IC50 of Syk-inhibitory activity
Summary of the method: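 Baculovirus-expressed enzyme (1.2 ng) was preincubated with compound in HEPES pH 7.0/MgCl2/DTT buffer, 2 min shaking then 13 min at room temperature. Biotin-EDPDYEWPSA-NH2 (0.4 μM final) and ATP (27 μM final) were added for 40 min at room temperature. EDTA stop, streptavidin-XL/PT66-K TR-FRET at 615/665 nm gave IC50.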

## NCC(CCC(F)(F)F)Nc1nc(Nc2cncc(-c3ccccc3)c2)c(C(N)=O)cc1F (stereo not drawn) [Example 006-305, 6-((1-amino-5,5,5-trifluoropentan-2-yl)amino)-5-fluoro-2-((5-phenylpyridin-3-yl)amino)nicotinamide]
  IC50: 10 to 50 nM

## COc1ccc(-c2cncc(Nc3nc(N[C@@H](CN)CC(C)C)c(F)cc3C(N)=O)c2)c(F)c1 [Example 006-319, (R)-6-((1-amino-4-methylpentan-2-yl)amino)-5-fluoro-2-((5-(2-fluoro-4-methoxyphenyl)pyridin-3-yl)amino)nicotinamide]
  IC50: 10 to 50 nM

## COc1ccc(F)c(-c2cncc(Nc3nc(N[C@@H](CN)CC(C)C)c(F)cc3C(N)=O)c2)c1 [Example 006-320, (R)-6-((1-amino-4-methylpentan-2-yl)amino)-5-fluoro-2-((5-(2-fluoro-5-methoxyphenyl)pyridin-3-yl)amino)nicotinamide]
  IC50: 50 to 100 nM

## COc1cccc(-c2cc(Nc3nc(N[C@@H](CN)CC(C)C)c(F)cc3C(N)=O)ccn2)c1 [Example 006-325, (R)-6-((1-amino-4-methylpentan-2-yl)amino)-5-fluoro-2-((2-(3-methoxyphenyl)pyridin-4-yl)amino)nicotinamide]
  IC50: < 10 nM

## COc1ccc(-c2cc(Nc3nc(N[C@@H](CN)CC(C)C)c(F)cc3C(N)=O)ccn2)cc1 [Example 006-326, (R)-6-((1-amino-4-methylpentan-2-yl)amino)-5-fluoro-2-((2-(4-methoxyphenyl)pyridin-4-yl)amino)nicotinamide]
  IC50: < 10 nM

## COc1cccc(-c2cc(Nc3nc(N[C@@H](CN)CC(C)C)c(F)cc3C(N)=O)ccn2)c1F [Example 006-327, (R)-6-((1-amino-4-methylpentan-2-yl)amino)-5-fluoro-2-((2-(2-fluoro-3-methoxyphenyl)pyridin-4-yl)amino)nicotinamide]
  IC50: < 10 nM

## COc1ccc(-c2cc(Nc3nc(N[C@@H](CN)CC(C)C)c(F)cc3C(N)=O)ccn2)c(F)c1 [Example 006-328, (R)-6-((1-amino-4-methylpentan-2-yl)amino)-5-fluoro-2-((2-(2-fluoro-4-methoxyphenyl)pyridin-4-yl)amino)nicotinamide]
  IC50: < 10 nM

## NC[C@H](Nc1nc(Nc2cncc(-c3ccccc3)c2)c(C(N)=O)cc1F)C1CC1 [Example 006-337, (R)-6-((2-amino-1-cyclopropylethyl)amino)-5-fluoro-2-((5-phenylpyridin-3-yl)amino)nicotinamide]
  IC50: 10 to 50 nM

## CCCC[C@H](CN)Nc1nc(Nc2cccc3c2cnn3C)c(C(N)=O)cc1F [Example 006-339, (R)-6-((1-aminohexan-2-yl)amino)-5-fluoro-2-((1-methyl-1H-indazol-4-yl)amino)nicotinamide]
  IC50: 10 to 50 nM

## CCCC[C@H](CN)Nc1nc(Nc2cncc(C3CC3)c2)c(C(N)=O)cc1F [Example 006-340, (R)-6-((1-aminohexan-2-yl)amino)-2-((5-cyclopropylpyridin-3-yl)amino)-5-fluoronicotinamide]
  IC50: < 10 nM

## CCCC[C@H](CN)Nc1nc(Nc2cnc(C)c(C)c2)c(C(N)=O)cc1F [Example 006-341, (R)-6-((1-aminohexane-2-yl)amino)-2-((5,6-dimethylpyridin-3-yl)amino)-5-fluoronicotinamide]
  IC50: 10 to 50 nM

## C[C@H](N)[C@@H](CC1CC1)Nc1nc(Nc2ccc3nccnc3c2)c(C(N)=O)cc1F [Example 006-347, 6-(((2R,3S)-3-amino-1-cyclopropylbutan-2-yl)amino)-5-fluoro-2-((quinoxalin-6-yl)amino)nicotinamide]
  IC50: 10 to 50 nM

## COc1cc(Nc2nc(N[C@H](CC3CC3)[C@H](C)N)c(F)cc2C(N)=O)cc(OC)n1 [Example 006-349, 6-(((2R,3S)-3-amino-1-cyclopropylbutan-2-yl)amino)-2-((2,6-dimethoxypyridin-4-yl)amino)-5-fluoronicotinamide]
  IC50: < 10 nM

## CC[C@H](N)[C@@H](CC)Nc1nc(Nc2ccc3cnn(C)c3c2)c(C(N)=O)cc1F [Example 006-366, 6-(((3R,4S)-4-aminohexan-3-yl)amino)-5-fluoro-2-((1-methyl-1H-indazol-6-yl)amino)nicotinamide]
  IC50: 50 to 100 nM

## CC[C@H](N)[C@@H](CC)Nc1nc(Nc2cccc3c2cnn3C)c(C(N)=O)cc1F [Example 006-367, 6-(((3R,4S)-4-aminohexan-3-yl)amino)-5-fluoro-2-((1-methyl-1H-indazol-4-yl)amino)nicotinamide]
  IC50: 10 to 50 nM

## CC[C@H](N)[C@@H](CC)Nc1nc(Nc2cncc(F)c2)c(C(N)=O)cc1F [Example 006-382, 6-(((3R,4S)-4-aminohexan-3-yl)amino)-5-fluoro-2-((5-fluoropyridin-3-yl)amino)nicotinamide]
  IC50: 10 to 50 nM

## CC[C@H](N)[C@@H](CC)Nc1nc(Nc2cnc(OC)c(-n3nccn3)c2)c(C(N)=O)cc1F [Example 006-391, 6-(((3R,4S)-4-aminohexan-3-yl)amino)-5-fluoro-2-((6-methoxy-5-(2H-1,2,3-triazol-2-yl)pyridin-3-yl)amino)nicotinamide]
  IC50: 10 to 50 nM

## COc1ncc(Nc2nc(N[C@H](CC3CC3)[C@H](C)N)c(F)cc2C(N)=O)cc1-n1nccn1 [Example 006-393, 6-(((2R,3S)-3-amino-1-cyclopropylbutan-2-yl)amino)-5-fluoro-2-((6-methoxy-5-(2H-1,2,3-triazol-2-yl)pyridin-3-yl)amino)nicotinamide]
  IC50: 10 to 50 nM

## CCC[C@@H](Nc1nc(Nc2ccc3c(cnn3CC)c2)c(C(N)=O)cc1F)[C@@H](N)CC [Example 006-399, 6-(((3S,4R)-3-aminoheptan-4-yl)amino)-2-((1-ethyl-1H-indazol-5-yl)amino)-5-fluoronicotinamide]
  IC50: < 10 nM

## CCC[C@@H](Nc1nc(Nc2cc(OC)nc(OC)c2)c(C(N)=O)cc1F)[C@@H](N)CC [Example 006-413, 6-(((3S,4R)-3-aminoheptan-4-yl)amino)-2-((2,6-dimethoxypyridin-4-yl)amino)-5-fluoronicotinamide]
  IC50: < 10 nM

## CC(C)C[C@@H](Nc1nc(Nc2ccc3c(cnn3CCF)c2)c(C(N)=O)cc1F)[C@H](C)N [Example 006-419, 6-(((2S,3R)-2-amino-5-methylhexan-3-yl)amino)-5-fluoro-2-((1-(2-fluoroethyl)-1H-indazol-5-yl)amino)nicotinamide]
  IC50: < 10 nM

## CCCC[C@H](CN)Nc1nc(Nc2ccc3c(cnn3CC(F)F)c2)c(C(N)=O)cc1F [Example 006-421, (R)-6-((1-aminohexan-2-yl)amino)-2-((1-(2,2-difluoroethyl)-1H-indazol-5-yl)amino)-5-fluoronicotinamide]
  IC50: 50 to 100 nM

## CC(C)C[C@H](CN)Nc1nc(Nc2ccc3c(cnn3CC(F)F)c2)c(C(N)=O)cc1F [Example 006-422, (R)-6-((1-amino-4-methylpentan-2-yl)amino)-2-((1-(2,2-difluoroethyl)-1H-indazol-5-yl)amino)-5-fluoronicotinamide]
  IC50: < 10 nM

## CC[C@@H](Nc1nc(Nc2ccc3c(cnn3CC(F)F)c2)c(C(N)=O)cc1F)[C@H](C)N [Example 006-423, 6-(((2S,3R)-2-aminopentan-3-yl)amino)-2-((1-(2,2-difluoroethyl)-1H-indazol-5-yl)amino)-5-fluoronicotinamide]
  IC50: 10 to 50 nM

## CCC[C@@H](Nc1nc(Nc2ccc3c(cnn3CC(F)F)c2)c(C(N)=O)cc1F)[C@H](C)N [Example 006-424, 6-(((2S,3R)-2-aminohexan-3-yl)amino)-2-((1-(2,2-difluoroethyl)-1H-indazol-5-yl)amino)-5-fluoronicotinamide]
  IC50: 10 to 50 nM

## CCCC[C@@H](Nc1nc(Nc2ccc3c(cnn3CC(F)F)c2)c(C(N)=O)cc1F)[C@H](C)N [Example 006-425, 6-(((2S,3R)-2-aminoheptan-3-yl)amino)-2-((1-(2,2-difluoroethyl)-1H-indazol-5-yl)amino)-5-fluoronicotinamide]
  IC50: 10 to 50 nM

## C[C@H](N)[C@@H](CC1CC1)Nc1nc(Nc2ccc3c(cnn3CC(F)F)c2)c(C(N)=O)cc1F [Example 006-426, 6-(((2R,3S)-3-amino-1-cyclopropylbutan-2-yl)amino)-2-((1-(2,2-difluoroethyl)-1H-indazol-5-yl)amino)-5-fluoronicotinamide]
  IC50: 100 to 1000 nM

## CCn1ncc2ccc(Nc3nc(N[C@H](CC4CC4)[C@H](C)N)c(F)cc3C(N)=O)cc21 [Example 006-436]
  IC50: 10 to 50 nM

## C[C@H](N)[C@@H](CC1CC1)Nc1nc(Nc2ccc3cnn(CCF)c3c2)c(C(N)=O)cc1F [Example 006-437, 6-(((2R,3S)-3-amino-1-cyclopropylbutan-2-yl)amino)-5-fluoro-2-((1-(2-fluoroethyl)-1H-indazol-6-yl)amino)nicotinamide]
  IC50: 10 to 50 nM

## C[C@H](N)[C@@H](CC1CC1)Nc1nc(Nc2ccc3cnn(CC(F)F)c3c2)c(C(N)=O)cc1F [Example 006-438, 6-(((2R,3S)-3-amino-1-cyclopropylbutan-2-yl)amino)-2-((1-(2,2-difluoroethyl)-1H-indazol-6-yl)amino)-5-fluoronicotinamide]
  IC50: 10 to 50 nM

## C[C@H](N)[C@@H](CC1CC1)Nc1nc(Nc2ccc3c(c2)c(F)nn3C)c(C(N)=O)cc1F [Example 006-439, 6-(((2R,3S)-3-amino-1-cyclopropylbutan-2-yl)amino)-5-fluoro-2-((3-fluoro-1-methyl-1H-indazol-5-yl)amino)nicotinamide]
  IC50: 10 to 50 nM

## C[C@H](N)[C@@H](CC1CC1)Nc1nc(Nc2ccc3c(F)nn(C)c3c2)c(C(N)=O)cc1F [Example 006-440, 6-(((2R,3S)-3-amino-1-cyclopropylbutan-2-yl)amino)-5-fluoro-2-((3-fluoro-1-methyl-1H-indazol-6-yl)amino)nicotinamide]
  IC50: 10 to 50 nM

## CCn1nc(F)c2ccc(Nc3nc(N[C@H](CC4CC4)[C@H](C)N)c(F)cc3C(N)=O)cc21 [Example 006-441, 6-(((2R,3S)-3-amino-1-cyclopropylbutan-2-yl)amino)-2-((1-ethyl-3-fluoro-1H-indazol-6-yl)amino)-5-fluoronicotinamide]
  IC50: 10 to 50 nM
